In ChEMBL document CHEMBL5576145, “Domoic Acid as a Lead for the Discovery of the First Selective Ligand for Kainate Receptor Subtype 5 (GluK5)” (J Med Chem, 2024):
pEC50, pIC50, pKi: −log10 of the molar value.

Assays:
[1] = target: Glutamate receptor 4 (Rattus norvegicus) (UniProt P19493); experiment: Displacement of [3H]-AMPA from AMPA in rat cortical synaptosomes assessed as remaining activity at 10 uM incubated for 30 mins by TopCount microplate scintillation counting method relative to control; assay type: subcellular; conditions: Cortex, Synaptosome
[2] = target: Glutamate receptor ionotropic, kainate 3 (Rattus norvegicus, UniProt P42264); experiment: Displacement of [3H]-KA from rat GluK3
[3] = Displacement of [3H]-KA from KA in rat cortical synaptosomes incubated for 60 mins by TopCount microplate scintillation counting method; assay type: subcellular, Cortex, Synaptosome
[4] = target: Glutamate NMDA receptor (Rattus norvegicus) (UniProt P35439+Q00959+Q00960+Q00961+Q62645+Q8VHN2+Q9R1M7); experiment: Displacement of [3H]CGP39653 from NMDA receptor in rat cortical synaptosomes assessed as remaining activity at 10 uM incubated for 60 mins by Topcount microplate scintillation counting method relative to control; assay type: subcellular; conditions: Cortex, Synaptosome
[5] = target: Glutamate receptor ionotropic, kainate 1 (Rattus norvegicus, UniProt P22756); experiment: Displacement of [3H]-NF608 from rat GluK1
[6] = target: T1, Glutamate receptor ionotropic, kainate 5 (Mus musculus, UniProt Q61626); experiment: Displacement of [3H]-kainate from mouse GluK5 expressed in Sf9 cell membrane incubated for 2 hrs by scintillation counting method; assay type: cell membranes
T1 sequence (Q61626 whole entry): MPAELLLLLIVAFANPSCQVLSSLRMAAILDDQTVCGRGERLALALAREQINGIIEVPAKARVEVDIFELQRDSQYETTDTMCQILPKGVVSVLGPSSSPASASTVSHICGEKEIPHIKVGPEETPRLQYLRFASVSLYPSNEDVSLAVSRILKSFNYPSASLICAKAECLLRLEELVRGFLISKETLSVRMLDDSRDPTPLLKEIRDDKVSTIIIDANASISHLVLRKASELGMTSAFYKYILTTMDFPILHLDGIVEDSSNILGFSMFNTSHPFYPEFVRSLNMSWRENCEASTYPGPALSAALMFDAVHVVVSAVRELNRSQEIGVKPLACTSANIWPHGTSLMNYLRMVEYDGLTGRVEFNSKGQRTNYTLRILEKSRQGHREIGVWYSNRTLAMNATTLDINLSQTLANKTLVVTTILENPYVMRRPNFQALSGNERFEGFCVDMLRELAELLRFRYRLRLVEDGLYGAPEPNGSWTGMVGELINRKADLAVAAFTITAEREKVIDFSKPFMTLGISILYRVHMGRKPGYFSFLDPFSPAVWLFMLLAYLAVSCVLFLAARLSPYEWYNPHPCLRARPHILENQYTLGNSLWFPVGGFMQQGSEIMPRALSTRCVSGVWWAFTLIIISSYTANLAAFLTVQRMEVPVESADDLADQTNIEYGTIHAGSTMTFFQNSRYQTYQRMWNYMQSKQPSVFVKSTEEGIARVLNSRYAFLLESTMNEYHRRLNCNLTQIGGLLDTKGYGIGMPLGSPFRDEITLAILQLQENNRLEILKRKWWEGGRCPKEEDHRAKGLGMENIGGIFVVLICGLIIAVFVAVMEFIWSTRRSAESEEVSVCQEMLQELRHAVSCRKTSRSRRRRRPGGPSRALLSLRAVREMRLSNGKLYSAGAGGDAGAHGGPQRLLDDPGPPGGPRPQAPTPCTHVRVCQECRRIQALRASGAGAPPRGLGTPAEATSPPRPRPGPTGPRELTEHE

[7] = target: Glutamate receptor ionotropic, kainate 2 (Rattus norvegicus, UniProt P42260); experiment: Displacement of [3H]-KA from rat GluK2
[8] = target: Glutamate receptor ionotropic, kainate 3 (Rattus norvegicus) (UniProt P42264); experiment: Displacement of [3H]-KA from rat GluK3 assessed as percentage of radioligand binding at 10 uM relative to control
[9] = target: Glutamate receptor ionotropic, kainate 2 (Rattus norvegicus) (UniProt P42260); experiment: Displacement of [3H]-KA from rat GluK2 assessed as percentage of radioligand binding at 10 uM relative to control
[10] = target: Glutamate receptor ionotropic, kainate 1 (Rattus norvegicus) (UniProt P22756); experiment: Displacement of [3H]-NF608 from rat GluK1 assessed as percent of radioligand binding at 10 uM relative to control
[11] = Selectivity ratio of Ki for displacement of [3H]-NF608 from rat GluK1 to Ki for displacement of [3H]-kainate from mouse GluK5
[12] = Selectivity ratio of Ki for displacement of [3H]-KA from rat GluK3 to Ki for displacement of [3H]-kainate from mouse GluK5
[13] = Selectivity ratio of Ki for displacement of [3H]-KA from rat GluK2 to Ki for displacement of [3H]-kainate from mouse GluK5
[14] = target: T2, Glutamate receptor 4 (Rattus norvegicus, UniProt P19493); experiment: Displacement of [3H]-AMPA from AMPA in rat brain membrane preincubated for 15 mins followed by [3H]-AMPA addition and measured after 40 mins by scintillation counting method; assay type: cell membranes
[15] = Displacement of [3H]-Kainic acid from KA in rat brain membrane preincubated for 15 mins followed by [3H]-Kainic acid addition and measured after 1 hr by scintillation counting method; assay type: cell membranes
[16] = target: Glutamate NMDA receptor; experiment: Displacement of [3H]CGP39653 from NMDA receptor in rat cortical synaptosomes incubated for 60 mins by Topcount microplate scintillation counting method; assay type: subcellular, Cortex, Synaptosome
[17] = target: T2, Glutamate receptor 4; experiment: Displacement of [3H]-AMPA from AMPA in rat cortical synaptosomes incubated for 30 mins by TopCount microplate scintillation counting method; assay type: subcellular, Cortex, Synaptosome
[18] = target: T3, Glutamate receptor ionotropic, kainate 5 (Mus musculus) (UniProt Q61626); experiment: Displacement of [3H]-kainate from mouse GluK5 expressed in Sf9 cell membrane assessed as remaining activity at 10 uM incubated for 2 hrs by scintillation counting method relative to control; assay type: cell membranes
T3 sequence (whole entry): T1 sequence (Q61626 whole entry)

[19] = system: Hippocampus; experiment: Reduction in CA1 spike amplitude in Wistar rat hippocampal slices after 20 mins of toxin administration; assay type: functional, tissue-based
[20] = Binding affinity to KA receptor in rat synaptosomes; assay type: subcellular, Synaptosome
[21] = Displacement of [3H]-Kainic acid from KA in rat synaptic membrane; assay type: subcellular, Synaptosome
[22] = target: T2, Glutamate receptor 4; experiment: Displacement of [3H]-AMPA from AMPA in rat synaptic membrane; assay type: subcellular, Synaptosome

Glutamate receptor ionotropic, kainate 3 (Rattus norvegicus), sequence (P42264 whole entry): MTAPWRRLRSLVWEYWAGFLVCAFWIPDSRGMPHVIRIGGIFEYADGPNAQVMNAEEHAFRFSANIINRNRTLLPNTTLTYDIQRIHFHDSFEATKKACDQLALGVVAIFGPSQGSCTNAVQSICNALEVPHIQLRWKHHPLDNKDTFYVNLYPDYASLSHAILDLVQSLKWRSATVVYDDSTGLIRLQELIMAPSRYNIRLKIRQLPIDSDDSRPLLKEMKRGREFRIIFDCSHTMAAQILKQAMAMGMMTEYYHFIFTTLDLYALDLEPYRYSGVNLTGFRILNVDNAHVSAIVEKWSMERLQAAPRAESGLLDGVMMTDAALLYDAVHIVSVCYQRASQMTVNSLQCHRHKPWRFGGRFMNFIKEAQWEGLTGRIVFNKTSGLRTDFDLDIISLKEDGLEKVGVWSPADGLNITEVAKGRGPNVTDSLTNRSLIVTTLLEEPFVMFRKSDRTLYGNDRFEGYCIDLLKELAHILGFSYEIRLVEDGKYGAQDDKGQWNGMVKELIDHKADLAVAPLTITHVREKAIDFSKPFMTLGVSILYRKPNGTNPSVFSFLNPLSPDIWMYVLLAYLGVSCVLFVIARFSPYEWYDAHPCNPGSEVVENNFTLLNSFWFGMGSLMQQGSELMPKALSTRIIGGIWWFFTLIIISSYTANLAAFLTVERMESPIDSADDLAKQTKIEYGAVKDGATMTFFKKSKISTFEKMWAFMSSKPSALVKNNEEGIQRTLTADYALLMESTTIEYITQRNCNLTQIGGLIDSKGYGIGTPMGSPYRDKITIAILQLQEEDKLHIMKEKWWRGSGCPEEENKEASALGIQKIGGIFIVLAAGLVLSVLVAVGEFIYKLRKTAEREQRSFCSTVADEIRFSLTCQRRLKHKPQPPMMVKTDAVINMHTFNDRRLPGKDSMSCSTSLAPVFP
Glutamate receptor ionotropic, kainate 3, sequence (P42264 whole entry): as above
Glutamate receptor 4 (Rattus norvegicus), sequence (P19493 whole entry): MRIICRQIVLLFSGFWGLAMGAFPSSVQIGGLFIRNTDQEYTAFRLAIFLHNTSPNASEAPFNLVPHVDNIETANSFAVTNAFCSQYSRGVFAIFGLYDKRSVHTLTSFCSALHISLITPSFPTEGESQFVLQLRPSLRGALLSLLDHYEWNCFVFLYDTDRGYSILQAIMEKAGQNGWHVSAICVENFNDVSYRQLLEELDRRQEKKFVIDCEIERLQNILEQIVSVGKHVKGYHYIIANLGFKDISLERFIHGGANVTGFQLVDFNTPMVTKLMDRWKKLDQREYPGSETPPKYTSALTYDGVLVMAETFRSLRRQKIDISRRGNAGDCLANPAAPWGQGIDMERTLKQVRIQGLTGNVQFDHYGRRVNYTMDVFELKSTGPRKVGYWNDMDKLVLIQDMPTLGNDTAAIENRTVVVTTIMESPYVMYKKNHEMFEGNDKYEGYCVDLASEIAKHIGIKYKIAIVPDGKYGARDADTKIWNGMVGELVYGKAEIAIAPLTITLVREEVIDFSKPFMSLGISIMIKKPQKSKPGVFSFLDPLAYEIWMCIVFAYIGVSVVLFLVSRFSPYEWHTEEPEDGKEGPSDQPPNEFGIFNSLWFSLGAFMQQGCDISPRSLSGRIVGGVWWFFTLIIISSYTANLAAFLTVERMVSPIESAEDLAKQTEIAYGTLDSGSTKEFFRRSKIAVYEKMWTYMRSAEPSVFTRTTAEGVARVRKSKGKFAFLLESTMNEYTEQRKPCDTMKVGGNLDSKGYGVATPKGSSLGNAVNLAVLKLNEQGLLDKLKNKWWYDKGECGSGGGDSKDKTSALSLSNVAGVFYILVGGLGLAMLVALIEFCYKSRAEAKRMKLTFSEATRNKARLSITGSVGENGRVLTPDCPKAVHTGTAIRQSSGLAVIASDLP
T2 sequence (P19493 whole entry): as above
Glutamate receptor ionotropic, kainate 2, sequence (P42260 whole entry): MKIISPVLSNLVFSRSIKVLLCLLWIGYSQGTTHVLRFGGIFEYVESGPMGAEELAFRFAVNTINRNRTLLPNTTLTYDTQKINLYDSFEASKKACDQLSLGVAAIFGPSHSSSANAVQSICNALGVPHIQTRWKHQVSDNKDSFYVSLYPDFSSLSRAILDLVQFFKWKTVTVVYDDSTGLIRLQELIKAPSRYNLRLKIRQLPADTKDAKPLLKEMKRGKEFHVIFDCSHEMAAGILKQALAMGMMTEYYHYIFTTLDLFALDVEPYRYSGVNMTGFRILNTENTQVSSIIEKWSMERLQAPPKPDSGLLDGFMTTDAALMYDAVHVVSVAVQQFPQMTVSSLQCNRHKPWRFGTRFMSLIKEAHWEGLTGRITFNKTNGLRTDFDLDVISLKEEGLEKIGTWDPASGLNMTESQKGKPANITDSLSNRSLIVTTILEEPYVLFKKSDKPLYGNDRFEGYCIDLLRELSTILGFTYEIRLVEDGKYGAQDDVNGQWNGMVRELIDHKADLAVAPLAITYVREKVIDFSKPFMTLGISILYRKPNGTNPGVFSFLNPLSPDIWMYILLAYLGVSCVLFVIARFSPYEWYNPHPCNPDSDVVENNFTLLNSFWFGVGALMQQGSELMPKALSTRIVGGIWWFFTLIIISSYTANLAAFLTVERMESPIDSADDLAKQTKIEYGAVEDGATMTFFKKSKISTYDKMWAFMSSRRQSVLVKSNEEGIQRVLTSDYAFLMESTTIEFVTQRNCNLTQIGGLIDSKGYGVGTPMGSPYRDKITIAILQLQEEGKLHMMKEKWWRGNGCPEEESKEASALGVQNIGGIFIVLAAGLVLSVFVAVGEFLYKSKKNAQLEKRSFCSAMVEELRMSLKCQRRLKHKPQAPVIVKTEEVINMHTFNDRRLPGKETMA
Glutamate receptor ionotropic, kainate 2 (Rattus norvegicus), sequence (P42260 whole entry): as above
Glutamate receptor ionotropic, kainate 1, sequence (P22756 whole entry): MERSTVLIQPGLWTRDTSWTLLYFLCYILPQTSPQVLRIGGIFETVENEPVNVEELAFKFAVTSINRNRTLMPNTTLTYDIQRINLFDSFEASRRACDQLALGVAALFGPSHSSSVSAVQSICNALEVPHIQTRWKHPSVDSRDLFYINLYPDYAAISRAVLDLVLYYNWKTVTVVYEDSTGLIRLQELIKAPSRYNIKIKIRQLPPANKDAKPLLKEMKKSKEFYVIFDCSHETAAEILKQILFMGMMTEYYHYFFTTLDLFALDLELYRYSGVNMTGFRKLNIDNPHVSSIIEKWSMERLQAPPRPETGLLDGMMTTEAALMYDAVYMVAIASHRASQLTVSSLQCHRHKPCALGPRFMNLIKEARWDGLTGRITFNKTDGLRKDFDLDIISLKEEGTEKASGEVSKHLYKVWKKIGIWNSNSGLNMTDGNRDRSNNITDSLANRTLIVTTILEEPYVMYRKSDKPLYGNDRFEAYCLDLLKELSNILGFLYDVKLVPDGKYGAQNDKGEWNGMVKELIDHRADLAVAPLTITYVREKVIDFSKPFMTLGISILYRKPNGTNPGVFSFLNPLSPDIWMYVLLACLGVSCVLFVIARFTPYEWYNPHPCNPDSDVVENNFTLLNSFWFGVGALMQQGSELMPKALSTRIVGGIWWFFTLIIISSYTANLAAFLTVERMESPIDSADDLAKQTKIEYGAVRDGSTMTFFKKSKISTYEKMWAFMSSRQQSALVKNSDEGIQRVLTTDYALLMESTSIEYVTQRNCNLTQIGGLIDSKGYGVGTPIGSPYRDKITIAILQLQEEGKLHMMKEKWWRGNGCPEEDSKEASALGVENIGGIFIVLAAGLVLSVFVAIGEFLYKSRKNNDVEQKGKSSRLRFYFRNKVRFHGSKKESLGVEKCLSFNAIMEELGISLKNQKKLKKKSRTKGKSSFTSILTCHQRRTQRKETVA
Glutamate receptor ionotropic, kainate 1 (Rattus norvegicus), sequence (P22756 whole entry): as above

SMILES | pKi [2] | pIC50 [3] | pKi [6] | pKi [7] | Activity [8] [%] | Activity [9] [%] | Activity [10] [%] | further results
O=C(O)CCCc1cnnn1[C@H]1CN[C@H](C(=O)O)[C@H]1CC(=O)O | 5.21 | 5.64 | 6.32 | 5.11 |  |  |  | Activity [1]: 86%; Activity [4]: 90%; pKi [5]: 4.97
COc1cccc(-c2cnnn2[C@H]2CN[C@H](C(=O)O)[C@H]2CC(=O)O)c1 |  |  | 5.99 |  | 74 | 89 | 88 | 
O=C(O)C[C@@H]1[C@@H](C(=O)O)NC[C@@H]1n1nncc1-c1ccccc1 | 4.68 | 5.29 | 6.30 | 4.44 |  |  | 93 | Ratio Ki [11]: > 40; Activity [1]: 80%; Ratio Ki [12]: > 40; Activity [4]: 101%; Ratio Ki [13]: > 40
C/C(=C\C=C\[C@@H](C)C(=O)O)[C@H]1CN[C@H](C(=O)O)[C@H]1CC(=O)O [DOMORIC ACID] |  |  |  |  |  |  |  | pIC50 [14]: 4.92; pIC50 [15]: 6.03
O=C(O)C[C@@H]1[C@@H](C(=O)O)NC[C@@H]1n1nncc1-c1ccccn1 | 5.43 |  | 6.59 | 5.11 |  |  |  | pKi [5]: 4.94
C/C(=C/C=C/[C@H](C)C(=O)O)[C@H]1CN[C@H](C(=O)O)[C@H]1CC(=O)O |  |  |  |  |  |  |  | pIC50 [14]: 5.24; pIC50 [15]: 7.55
O=C(O)CCc1cn([C@H]2CN[C@H](C(=O)O)[C@H]2CC(=O)O)nn1 | < 4.00 | < 4.00 |  | < 4.00 |  |  |  | pKi [16]: < 4.00; pIC50 [17]: < 4.00; pKi [5]: < 4.00
CC(CCc1cnnn1[C@H]1CN[C@H](C(=O)O)[C@H]1CC(=O)O)C(=O)O (stereo not given in full) | 5.23 | 5.76 | 6.38 | 5.06 |  |  |  | Ratio Ki [11]: 14; Activity [1]: 73%; Ratio Ki [12]: 14; Activity [4]: 102%; Ratio Ki [13]: 14; pKi [5]: 4.93
CCc1ccc(-c2cnnn2[C@H]2CN[C@H](C(=O)O)[C@H]2CC(=O)O)cc1 |  |  |  |  | 83 | 92 | 95 | Activity [18]: 45%
O=C(O)C[C@@H]1[C@@H](C(=O)O)NC[C@@H]1n1nncc1-c1ccc(C(F)(F)F)cc1 |  |  |  |  | 85 | 103 | 95 | Activity [18]: 62%
C=C(CC/C=C(\C)C(=O)O)[C@H]1CN[C@H](C(=O)O)[C@H]1CC(=O)O |  |  |  |  |  |  |  | pEC50 [19]: 5.43
O=C(O)C[C@@H]1[C@@H](C(=O)O)NC[C@@H]1n1nncc1CO |  | 4.66 | 5.10 |  | 84 | 76 | 94 | Activity [1]: 86%; Activity [4]: 102%
Cc1nc([C@H]2CN[C@H](C(=O)O)[C@H]2CC(=O)O)cs1 |  |  |  |  |  |  |  | pIC50 [20]: 8.22
O=C(O)C[C@@H]1[C@@H](C(=O)O)NC[C@@H]1c1ccc(C(=O)O)[nH]c1=O |  |  |  |  |  |  |  | pIC50 [21]: 6.48; pIC50 [22]: 7.22
C/C(=C/C=C\[C@@H](C)C(=O)O)[C@H]1CN[C@H](C(=O)O)[C@H]1CC(=O)O |  |  |  |  |  |  |  | pIC50 [14]: 4.77; pIC50 [15]: 7.55
O=C(O)C[C@@H]1[C@@H](C(=O)O)NC[C@@H]1n1nncc1-c1cccnc1 |  |  |  |  | 80 | 92 | 98 | Activity [18]: 47%
